The record followed here is US10570167B2 (Calithera Biosciences, Inc., priority 2016, dated 2020).

recombinant CD73, sequence (P21589 27-547): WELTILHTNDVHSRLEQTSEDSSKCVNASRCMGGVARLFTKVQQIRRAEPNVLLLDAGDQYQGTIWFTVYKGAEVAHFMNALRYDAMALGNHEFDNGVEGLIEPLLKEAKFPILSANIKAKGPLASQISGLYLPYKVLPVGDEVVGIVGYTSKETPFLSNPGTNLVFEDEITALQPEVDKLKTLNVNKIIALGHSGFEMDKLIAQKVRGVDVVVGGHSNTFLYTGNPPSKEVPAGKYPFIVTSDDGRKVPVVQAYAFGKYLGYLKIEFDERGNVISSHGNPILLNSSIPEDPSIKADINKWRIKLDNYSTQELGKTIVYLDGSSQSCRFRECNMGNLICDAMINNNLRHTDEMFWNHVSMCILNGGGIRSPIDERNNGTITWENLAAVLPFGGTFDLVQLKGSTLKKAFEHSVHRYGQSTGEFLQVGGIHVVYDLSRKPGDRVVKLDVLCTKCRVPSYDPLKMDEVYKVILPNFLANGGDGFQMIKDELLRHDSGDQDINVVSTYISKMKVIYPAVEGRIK

This assay concerns the target recombinant CD73 (Homo sapiens (Human), UniProt P21589). The experiment in a line: Inhibition of soluble recombinant CD73 enzyme activity in vitro (AMP hydrolysis, Malachite Green phosphate detection). The format is biochemical. To be noted: recombinant CD73 0.5 nM, AMP 50 μM, 30 minutes at room temperature. As to the method:
Inhibition of the CD73 Enzyme In Vitro
The concentration of inorganic phosphate was determined using a phosphate standard curve.
For `Nc1nc(Cl)nc2c1ncn2[C@@H]1O[C@H](COC(Cc2ccccc2)(C(=O)O)C(=O)O)[C@H](N)[C@H]1O` [Example 166], the IC50 is more than 10000 nM. The figure for `Cc1[nH]ncc1-c1ccc(CC(OC[C@H]2O[C@@H](n3cnc4c(N)nc(Cl)nc43)[C@@H](F)[C@@H]2O)(C(=O)O)C(=O)O)cc1` [Example 177] is 48 nM; for `Nc1nc(Cl)nc2c1ncn2[C@@H]1O[C@H](COC(Cc2cccc(F)c2)(C(=O)O)C(=O)O)[C@@H](O)[C@@H]1F` it is 273 nM. The figure for `Nc1nc(Cl)nc2c1ncn2[C@@H]1O[C@H](COC(Cc2ccc(-c3ccncc3)cc2)(C(=O)O)C(=O)O)[C@@H](O)[C@@H]1F` [Example 156] is 86 nM. Then `CC(C)(C)OC(=O)Nc1nc(N=[N+]=[N-])nc2c1ncn2[C@@H]1O[C@H](COC(Cc2cccc(C#N)c2)(C(=O)O)C(=O)O)[C@@H](O)[C@@H]1F`, with 1790 nM; and `Cc1n[nH]c(C)c1-c1ccc(CC(OC[C@H]2O[C@@H](n3cnc4c(N)nc(Cl)nc43)[C@@H](F)[C@@H]2O)(C(=O)O)C(=O)O)cc1` [Example 152], with 34 nM. In the case of `Nc1nc(Cl)nc2c1ncn2[C@@H]1O[C@H](COC(Cc2ccc(CO)cc2)(C(=O)O)C(=O)O)[C@@H](O)[C@@H]1F`, the IC50 is 160 nM.

With `Nc1nc(Cl)nc2c1ccn2[C@@H]1O[C@H](COC(Cc2ccc(C(=O)O)cc2)(C(=O)O)C(=O)O)[C@@H](O)[C@@H]1F` [Example 171], the IC50 was determined as 114 nM. The figure for `Nc1nc(Cl)nc2c1ncn2[C@@H]1O[C@H](COC(Cc2ccc(C(F)(F)F)cc2)(C(=O)O)C(=O)O)[C@@H](O)[C@@H]1F` [Example 20, 2-(((2R,3R,4S,5R)-5-(6-amino-2-chloro-9H-purin-9-yl)-4-fluoro-3-hydroxytetrahydrofuran-2-yl)methoxy)-2-(4-(trifluoromethyl)benzyl) malonic acid] is 109 nM; for `Nc1nc(Cl)nc2c1ncn2[C@@H]1O[C@H](COC(Cc2ccc(N3CCCC3=O)cc2)(C(=O)O)C(=O)O)[C@@H](O)[C@@H]1F` [Example 162] it is 54 nM; for `C[C@H]1[C@@H](O)[C@H](n2cnc3c(N)nc(Cl)nc32)O[C@@H]1COC(Cc1ccccc1)(C(=O)O)C(=O)O` [Example 167] it is more than 40000 nM.

For the compound `Nc1nc(Cl)nc2c1ncn2[C@@H]1O[C@H](COC(Cc2ccc(-c3cccc(F)c3O)cc2)(C(=O)O)C(=O)O)[C@@H](O)[C@@H]1F` [Example 181], the IC50 came to 9 nM. The figure for `CC(C)(C)n1nnc(C(Cc2ccccc2)(OC[C@H]2O[C@@H](n3cnc4c(N)nc(Cl)nc43)[C@H](O)[C@H]2O)C(=O)O)n1` (stereo partly drawn) [Example 204] is 7850 nM; for `Nc1ncc(-c2ccc(CC(OC[C@H]3O[C@@H](n4cnc5c(N)nc(Cl)nc54)[C@@H](F)[C@@H]3O)(C(=O)O)C(=O)O)cc2)cn1` [Example 159] it is 76 nM. As to `N#Cc1cccc(CC(OC[C@H]2O[C@@H](n3cnc4c(N)nc(Cl)nc43)[C@@H](F)[C@@H]2O)(C(=O)O)C(=O)O)c1`, the IC50 amounted to 531 nM. Then `C[C@@H]1[C@@H](O)[C@H](n2cnc3c(N)nc(Cl)nc32)O[C@@H]1COC(Cc1ccccc1)(C(=O)O)C(=O)O` [Example 168], with 1750 nM. The figure for `Nc1ncnc2c1ncn2[C@@H]1O[C@H](COC(Cc2ccccc2)(C(=O)O)C(=O)O)[C@@H](O)[C@H]1F` is 21600 nM. Then `Nc1nc(Cl)nc2c1ccn2[C@@H]1O[C@H](COC(Cc2ccccc2)(C(=O)O)C(=O)O)[C@@H](O)[C@@H]1F` [Example 169], with 119 nM; and `Nc1nc(Cl)nc2c1ncn2[C@@H]1O[C@H](COC(Cc2ccccc2)(C(=O)O)C(=O)O)[C@@H](O)[C@@H]1F` [Example 6, 2-(((2R,3R,4S,5R)-5-(6-amino-2-chloro-9H-purin-9-yl)-4-fluoro-3-hydroxytetrahydro-furan-2-yl)methoxy)-2-benzylmalonic acid], with 130 nM; and `CCOC(=O)c1ccccc1-c1ccc(CC(OC[C@H]2O[C@@H](n3cnc4c(N)nc(Cl)nc43)[C@@H](F)[C@@H]2O)(C(=O)O)C(=O)O)cc1` [Example 175], with 18 nM. Take `C=C1[C@@H](O)[C@H](n2cnc3c(N)nc(Cl)nc32)O[C@@H]1COC(Cc1ccccc1)(C(=O)O)C(=O)O` [Example 154]: the IC50 is 1800 nM. Then `Nc1nc(Cl)nc2c1ncn2[C@@H]1O[C@H](COC(Cc2ccc(-c3ccccc3O)cc2)(C(=O)O)C(=O)O)[C@@H](O)[C@@H]1F` [Example 160], with 12 nM; and `Nc1nc(Cl)nc2c1ncn2[C@@H]1O[C@H](COC(Cc2ccc(F)cc2)(C(=O)O)C(=O)O)[C@@H](O)[C@@H]1F`, with 343 nM. For `CCOC(=O)C(Cc1ccccc1)(OC[C@H]1O[C@@H](n2cnc3c(N)nc(Cl)nc32)[C@@H](F)[C@@H]1O)c1nn[nH]n1` (stereo partly drawn) [Example 193], the IC50 is more than 50000 nM.

Turning to `Nc1nc(Cl)nc2c1ncn2[C@@H]1O[C@H](COC(Cc2ccc(-c3ccc(C(=O)O)cc3)cc2)(C(=O)O)C(=O)O)[C@@H](O)[C@@H]1F` [Example 155], the IC50 is 47 nM. The figure for `CCOC(=O)C(Cc1ccc(-c2ccccc2)cc1)(OC[C@H]1O[C@@H](n2cnc3c(N)nc(Cl)nc32)[C@@H](F)[C@@H]1O)C(=O)O` (single isomer, unassigned) [84 Isomer 1] is 7260 nM; for `CC(C)(C)OC(=O)Nc1nc(Cl)nc2c1ncn2[C@@H]1O[C@H](COC(Cc2ccccc2)(C(=O)O)c2nnnn2C(C)(C)c2ccccc2)[C@@H](O)[C@@H]1F` (stereo partly drawn) [Example 188] it is 11500 nM; for `Nc1nc(Cl)nc2c1ncn2[C@@H]1O[C@H](COC(Cc2cccc(C(=O)O)c2)(C(=O)O)C(=O)O)[C@@H](O)[C@@H]1F` it is 119 nM. The figure for `CN(C)C(=O)c1cccc(CC(OC[C@H]2O[C@@H](n3cnc4c(N)nc(Cl)nc43)[C@@H](F)[C@@H]2O)(C(=O)O)C(=O)O)c1` is 521 nM. Then `CS(=O)(=O)c1ccc(-c2ccc(CC(OC[C@H]3O[C@@H](n4cnc5c(N)nc(Cl)nc54)[C@@H](F)[C@@H]3O)(C(=O)O)C(=O)O)cc2)cc1` [Example 153], with 74 nM. With `CCOC(=O)C(Cc1ccc(-c2ccccc2)cc1)(OC[C@H]1O[C@@H](n2cnc3c(N)nc(Cl)nc32)[C@@H](F)[C@@H]1O)C(=O)O` (single isomer, unassigned) [84 Isomer 2], the IC50 was 8260 nM.

As to `CCOC(=O)C(OC[C@H]1O[C@@H](n2cnc3c(N)nc(Cl)nc32)[C@H](O)[C@@H]1O)c1nnn[nH]1` (stereo partly drawn) [Example 182], the IC50 was more than 50000 nM.

For `C[C@@]1(O)[C@H](O)[C@@H](COC(Cc2ccccc2)(C(=O)O)c2nn[nH]n2)O[C@H]1n1cnc2c(N)nc(Cl)nc21` (stereo partly drawn) [Example 202], the IC50 is more than 50000 nM. The figure for `Nc1nc(Cl)nc2c1ncn2[C@@H]1O[C@H](COC(Cc2ccc(-c3cccs3)cc2)(C(=O)O)C(=O)O)[C@@H](O)[C@@H]1F` [Example 158] is 105 nM; for `COc1ccccc1C(=O)Nc1ccc(CC(OC[C@H]2O[C@@H](n3cnc4c(N)nc(Cl)nc43)[C@@H](F)[C@@H]2O)(C(=O)O)C(=O)O)cc1` [Example 150] it is 16 nM. Then `Nc1nc(Cl)nc2c1ncn2[C@@H]1O[C@H](COC(Cc2cccc(OC(F)(F)F)c2)(C(=O)O)C(=O)O)[C@@H](O)[C@@H]1F` [Example 15, 2-(((2R,3R,4S,5R)-5-(6-amino-2-chloro-9H-purin-9-yl)-4-fluoro-3-hydroxytetrahydrofuran-2-yl)methoxy)-2-(3-(trifluoromethoxy)benzyl) malonic acid], with 308 nM.
